Data on 20 compounds can be found in PubChem BioAssay (NCI).

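48-hour exposure; five concentrations; linearly interpolated endpoints. Abbreviation: GI50, concentration required for 50% inhibition of growth. TGI marks complete inhibition of growth.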 Bounds are passed on as bounds.

For one experiment, the system named is OVCAR-5 ovarian. As to the kind of experiment: NCI-60 cell line screen, 48 h.
For `CC(=O)OCCc1cccnc1/C=N/O`, the TGI is above 100 µM.

Turning to `Cc1c(Cl)cccc1Nc1ncccc1C(=O)O`, the GI50 was above 100 µM and the TGI was above 100 µM.

`CN(C)c1ccc(/C=C2\C[N+](C)(C)C/C(=C\c3ccc(N(C)C)cc3)C2=O)cc1`: the TGI amounted to 96.5 µM.

In turn, `C#CC(C)(C)Oc1cc(O)c2c(=O)c3ccccc3n(C)c2c1` showed a TGI above 100 µM.

Take `COc1cc2c(NCCCCCCO[N+](=O)[O-])ncnc2c(OC)c1OC`: the TGI was above 92.7 µM.

`CN1CCCNCCN(CCc2ccccn2)CCCN(C)CC1` gave a TGI above 100 µM.

As for `N#Cc1cnn2ccn(C3OC(COC(=O)c4ccccc4)C(OC(=O)c4ccccc4)C3OC(=O)c3ccccc3)c12` (stereo not given), the TGI was above 21.5 µM.

As for `OC(c1cccc(C(F)(F)F)c1)c1cnccc1NC1CCCCCC1` (stereo not given), the GI50 was 1.7 µM and the TGI came to 3.76 µM.

With `N#Cc1c(O)c2c(c(O)c1C#N)C(=O)c1ccccc1C2=O`, the GI50 is 3.35 µM and the TGI was 8.74 µM.

Take `CN=C1NC(=O)/C(=C/c2ccc3ncccc3c2)S1`: the GI50 was 9.52 µM and the TGI was above 25 µM.

As to `O=[N+]([O-])c1ccc(NSc2ccccc2)cc1`, the TGI is above 100 µM.

On to `Cc1c(C(=O)/C=C/c2cccc3ccccc23)[n+](=O)c2ccccc2n1[O-]`, for which the TGI turned out to be 28.5 µM.

`CC(=O)/C=C/c1cccc(N=S)c1` returned a TGI above 100 µM.

Turning to `O=C1/C(=C/c2ccccc2)CN(C(=O)Oc2ccc(Cl)cc2)C/C1=C\c1ccccc1`, the TGI worked out at 23.2 µM.

In turn, `CC1=C[C@@H]2Cc3occc3C(C)(C)[C@@H]2CC1` gave a TGI of 50.3 µM.

For `CC1=C2[C@@H](CC1)[C@]1(C)O[C@@](C(C)C)(C[C@H]1OC(=O)[C@H](C)O)[C@H]2OC(=O)/C=C/c1ccccc1`, the GI50 is 17.7 µM and the TGI worked out at 36.2 µM.

Compound `CN(C)c1ccc2c(c1)oc(=O)c1ccccc12` displayed a TGI of 30.2 µM.

Regarding `CN1CCN(Cc2ccc(NC(=O)c3cncc(C#Cc4cnc(N)c5ccccc45)c3)cc2C(F)(F)F)CC1`, the GI50 was 0.457 µM and the TGI was found to be 1.11 µM.

Turning to `NS(=O)(=O)c1ccc(-n2nc(-c3ccc(Br)cc3)ccc2=O)cc1`, the GI50 is above 10 µM and the TGI was above 10 µM.

For `S=C1NCCN1C1=Nc2ccccc2CO1`, the GI50 was above 100 µM and the TGI was above 100 µM.

The subject of another experiment is LOX IMVI melanoma. The experiment is described as follows: NCI-60 cell line screen, 48 h.
Consider `CC(=O)OCCc1cccnc1/C=N/O`, for which the TGI is above 100 µM.

On to `Cc1c(Cl)cccc1Nc1ncccc1C(=O)O`, for which the GI50 is 54.9 µM and the TGI was above 100 µM.

Compound `CN(C)c1ccc(/C=C2\C[N+](C)(C)C/C(=C\c3ccc(N(C)C)cc3)C2=O)cc1` registered a TGI of 36.4 µM.

Take `C#CC(C)(C)Oc1cc(O)c2c(=O)c3ccccc3n(C)c2c1`: the TGI turned out to be 44.3 µM.

The compound `COc1cc2c(NCCCCCCO[N+](=O)[O-])ncnc2c(OC)c1OC` displayed a TGI of 49.3 µM.

Regarding `CN1CCCNCCN(CCc2ccccn2)CCCN(C)CC1`, the TGI is above 79.1 µM.

`N#Cc1cnn2ccn(C3OC(COC(=O)c4ccccc4)C(OC(=O)c4ccccc4)C3OC(=O)c3ccccc3)c12` (stereo not given) yielded a TGI above 31.6 µM.

As for `OC(c1cccc(C(F)(F)F)c1)c1cnccc1NC1CCCCCC1` (stereo not given), the GI50 is 1.59 µM and the TGI stood at 2.98 µM.

For `N#Cc1c(O)c2c(c(O)c1C#N)C(=O)c1ccccc1C2=O`, the GI50 was 0.349 µM and the TGI amounted to 4.29 µM.

Turning to `CN=C1NC(=O)/C(=C/c2ccc3ncccc3c2)S1`, the GI50 is 6.74 µM and the TGI was above 25 µM.

On to `O=[N+]([O-])c1ccc(NSc2ccccc2)cc1`, for which the TGI was 28 µM.

As to `Cc1c(C(=O)/C=C/c2cccc3ccccc23)[n+](=O)c2ccccc2n1[O-]`, the TGI was found to be 20.6 µM.

`CC(=O)/C=C/c1cccc(N=S)c1` displayed a TGI of 5.92 µM.

`O=C1/C(=C/c2ccccc2)CN(C(=O)Oc2ccc(Cl)cc2)C/C1=C\c1ccccc1` displayed a TGI of 2.51 µM.

Take `CC1=C[C@@H]2Cc3occc3C(C)(C)[C@@H]2CC1`: the TGI came out at 33.6 µM.

For `CC1=C2[C@@H](CC1)[C@]1(C)O[C@@](C(C)C)(C[C@H]1OC(=O)[C@H](C)O)[C@H]2OC(=O)/C=C/c1ccccc1`, the GI50 is 15.1 µM and the TGI is 30.7 µM.

The compound `CN(C)c1ccc2c(c1)oc(=O)c1ccccc12` had a TGI of 18.7 µM.

Consider `CN1CCN(Cc2ccc(NC(=O)c3cncc(C#Cc4cnc(N)c5ccccc45)c3)cc2C(F)(F)F)CC1`, for which the GI50 is 0.387 µM and the TGI came out at 0.837 µM.

`NS(=O)(=O)c1ccc(-n2nc(-c3ccc(Br)cc3)ccc2=O)cc1`: the GI50 is above 10 µM and the TGI was above 10 µM.

On to `S=C1NCCN1C1=Nc2ccccc2CO1`, for which the GI50 was above 100 µM and the TGI is above 100 µM.

The next experiment has as its system IGROV1 ovarian. The experiment is described as follows: NCI-60 cell line screen, 48 h.
Compound `CC(=O)OCCc1cccnc1/C=N/O` displayed a TGI above 100 µM.

Regarding `Cc1c(Cl)cccc1Nc1ncccc1C(=O)O`, the GI50 was above 100 µM and the TGI was above 100 µM.

Regarding `CN(C)c1ccc(/C=C2\C[N+](C)(C)C/C(=C\c3ccc(N(C)C)cc3)C2=O)cc1`, the TGI turned out to be 18 µM.

As for `C#CC(C)(C)Oc1cc(O)c2c(=O)c3ccccc3n(C)c2c1`, the TGI was above 100 µM.

Turning to `COc1cc2c(NCCCCCCO[N+](=O)[O-])ncnc2c(OC)c1OC`, the TGI is above 84.4 µM.

With `CN1CCCNCCN(CCc2ccccn2)CCCN(C)CC1`, the TGI was above 100 µM.

The compound `N#Cc1cnn2ccn(C3OC(COC(=O)c4ccccc4)C(OC(=O)c4ccccc4)C3OC(=O)c3ccccc3)c12` (stereo not given) yielded a TGI above 21.5 µM.

In the case of `OC(c1cccc(C(F)(F)F)c1)c1cnccc1NC1CCCCCC1` (stereo not given), the GI50 was 1.7 µM and the TGI was found to be 3.43 µM.

With `N#Cc1c(O)c2c(c(O)c1C#N)C(=O)c1ccccc1C2=O`, the GI50 was 2.89 µM and the TGI turned out to be 10.8 µM.

Turning to `CN=C1NC(=O)/C(=C/c2ccc3ncccc3c2)S1`, the GI50 is 8.53 µM and the TGI is above 25 µM.
